Data from patent US7592330B2, “Methods and compositions for preserving the viability of photoreceptor cells” (Massachusetts Eye and Ear Infirmary, priority 2005, dated 2009).

Key:
[1] = system: calpain-mediated cleavage of calcineurin; test: ALLM treatment in experimental retinal detachment, Western blot of calcineurin cleavage (Example 4, Experiment #2); format: in vivo, Brown Norway rats
Text: The following experiments determine that calcineurin is cleaved after retinal detachment and that pharmacologic inhibition of calpain will prevent this activation. In particular, retinas of rats with experimental retinal detachment will be examined for biochemical evidence of calcineurin activation. These experiments also determine that calcineurin cleavage is mediated by the calcium-dependent enzyme, calpain. […] Finally, they determine that calcineurin inhibitors like FK506 have a neuroprotective effect on photoreceptor cells death.
One day prior to surgical induction, animals are started on a treatment of ALLM (20 mg/kg/day, intraperitoneal administration), a calpain inhibitor, or vehicle control, and administration continues throughout the study. For this experiment, the animals are followed for three or five days after retinal detachment. At the end of this period, animals are sacrificed and their eyes are removed for either protein isolation or immunohistochemistry. Fellow eyes are used as controls. Western blot analysis is used to determine levels of retinal calcineurin and calcineurin cleavage products. Six animals per group are used.
Retinal Detachment Model. […]

[2] = target: T1, caspase 1 (Homo sapiens, UniProt P29466); conditions: cited from earlier work
T1 sequence (P29466 120-297 limits assumed): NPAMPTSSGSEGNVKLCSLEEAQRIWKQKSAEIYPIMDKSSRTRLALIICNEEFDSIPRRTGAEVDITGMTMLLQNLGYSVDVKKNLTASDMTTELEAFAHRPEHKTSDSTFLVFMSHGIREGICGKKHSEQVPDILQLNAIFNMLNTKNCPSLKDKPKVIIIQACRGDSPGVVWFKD
T1 sequence (P29466 317-404 limits assumed): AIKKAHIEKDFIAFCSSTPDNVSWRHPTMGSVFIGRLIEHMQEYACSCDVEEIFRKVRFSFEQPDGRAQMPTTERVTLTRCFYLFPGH

[3] = target: T2, caspase 4 (Homo sapiens, UniProt P49662); conditions: cited from earlier work
T2 sequence (P49662 81-270 limits assumed): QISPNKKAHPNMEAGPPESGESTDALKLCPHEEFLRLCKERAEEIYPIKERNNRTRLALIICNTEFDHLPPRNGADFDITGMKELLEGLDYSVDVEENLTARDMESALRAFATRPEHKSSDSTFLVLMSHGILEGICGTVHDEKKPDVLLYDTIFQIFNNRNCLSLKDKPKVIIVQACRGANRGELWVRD
T2 sequence (P49662 290-377 limits assumed): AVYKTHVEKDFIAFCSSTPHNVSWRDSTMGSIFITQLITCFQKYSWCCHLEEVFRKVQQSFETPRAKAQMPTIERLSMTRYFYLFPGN

[4] = target: T3, caspase 3 (Homo sapiens, UniProt P42574); conditions: cited from earlier work
T3 sequence (P42574 29-175 limits assumed): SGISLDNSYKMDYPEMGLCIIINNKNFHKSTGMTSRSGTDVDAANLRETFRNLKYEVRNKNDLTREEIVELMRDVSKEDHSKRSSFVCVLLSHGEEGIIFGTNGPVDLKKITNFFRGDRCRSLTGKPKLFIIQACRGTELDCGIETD
T3 sequence (P42574 176-277 limits assumed): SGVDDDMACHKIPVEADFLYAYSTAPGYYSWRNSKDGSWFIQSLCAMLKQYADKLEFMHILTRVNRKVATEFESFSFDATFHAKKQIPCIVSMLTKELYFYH

[5] = target: T4, caspase 7 (Homo sapiens, UniProt P55210); conditions: cited from earlier work
T4 sequence (P55210 24-198 limits assumed): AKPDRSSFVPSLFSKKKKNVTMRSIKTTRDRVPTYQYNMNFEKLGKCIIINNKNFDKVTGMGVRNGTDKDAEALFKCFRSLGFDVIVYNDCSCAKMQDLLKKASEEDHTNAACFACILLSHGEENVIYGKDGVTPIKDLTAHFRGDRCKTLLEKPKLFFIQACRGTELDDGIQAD
T4 sequence (P55210 207-303 limits assumed): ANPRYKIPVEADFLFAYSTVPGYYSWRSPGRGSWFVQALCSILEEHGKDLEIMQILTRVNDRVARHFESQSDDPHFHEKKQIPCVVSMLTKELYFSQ

[6] = system: photoreceptor cells; format: in vivo, Brown Norway rats
Protocol: Methods. Retinal detachments were created in the eyes of Brown Norway rats by injecting 10% hyaluronic acid into the subretinal space using a transvitreal approach. FK506 (tacrolimus) (5 mg/kg/day) diluted in PBS was administered by gastric gavage one day prior to the induction of retinal detachment, on the day of the induction, and for the two following days (n=6). Control animals received the same volume of PBS (0.5 cc) by gastric gavage one day prior to the induction of retinal detachment, on the day of the induction, and for the two following days (n=3). […] All eyes were enucleated 72 hours after retinal detachment induction and embedded in paraffin. Fourteen micrometer sections were subsequently obtained. DNA fragmentation was examined using terminal dUTP-biotin nick end-labeling (TUNEL). A masked observer counted TUNEL-positive cells and obtained an average from three adjacent standardized fields in two serial sections.

[7] = system: photoreceptor cells; test: Caspase inhibitor injected into region of retinal detachment, TUNEL staining (Example 2); format: in vivo, Brown-Norway rats; conditions: 25 μl of 0.2, 2 or 20 mM inhibitor in DMSO into region of detachment; 72 hours; relative to untreated eyes
Protocol: The caspase inhibitor, Z-Val-Ala-Asp-fluoromethylketone is dissolved in dimethyl sulfoxide (DMSO) to give the final concentrations of 0.2 mM, 2 mM, and 20 mM. After creating the retinotomy with the subretinal injector, a small amount of Healon® sodium hyaluronate is injected in the subretinal space so as to elevate the retina. After retinal elevation, a Hamilton syringe with a 33 gauge needle is introduced through the retinotomy site, and 25 μl of inhibitor is injected into the region of detachment. About 25 minutes later, Healon® sodium hyaluronate is injected, via the same retinotomy site, to maintain the retinal detachment. Healon® sodium hyaluronate is injected until resistance is detected.
Only the right eyes of rats are used in evaluating the role of the Z-VAD-FMK inhibitor. The left eyes serve as the controls. Five animals are used for each concentration of inhibitor (namely, no inhibitor, 0.2 mM inhibitor, 2 mM inhibitor, and 20 mM inhibitor). For the no inhibitor control, 25 μl of DMSO is injected into the region of detachment followed by Healon® sodium hyaluronate.
After 72 hours, the eyes are enucleated and the rats euthanized. The enucleated eyes are paraffin embedded as described in Example 1. Then, 6 μm sections from the posterior segments are analyzed by TUNEL staining as described in Example 1.

## Ac-Leu-Leu-Met-H (aldehyde) [ALLM]
[1]; ALLM 20 mg/kg/day intraperitoneal, three or five days after retinal detachment
  levels of retinal calcineurin and calcineurin cleavage products: inhibition of the calpain-mediated cleavage pathway
[1]; treatment with ALLM in experimental retinal detachment
  photoreceptor cell death: protect photoreceptor cells from death

## Ac-Tyr-Val-Ala-Asp-aldehyde (SEQ ID NO: 7)
[2]
  Ki: 10 nM
[3]
  Ki: 10 nM
[4]
  Ki: ≥ 50000 nM
[5]
  Ki: ≥ 50000 nM

## C=CC[C@@H]1/C=C(\C)C[C@H](C)C[C@H](OC)[C@H]2O[C@@](O)(C(=O)C(=O)N3CCCC[C@H]3C(=O)O[C@H](/C(C)=C/[C@@H]3CC[C@@H](O)[C@H](OC)C3)[C@H](C)[C@@H](O)CC1=O)[C@H](C)C[C@@H]2OC [FK506, FK506 (tacrolimus)]
[6]; FK506 5 mg/kg/day by gastric gavage, from one day prior to detachment, eyes enucleated 72 hours after retinal detachment, n=6
  TUNEL-positive cells (mean±SD): 130.13±54.3
[6]; rat, in vivo, 5 mg/kg/day
  morphological signs of toxicity in the eyes: no morphological signs of toxicity
[6]; treated group vs PBS control, 72 hours after detachment, p<0.05
  reduction in the mean number of TUNEL-positive cells: 35%

## Z-Val-Ala-Asp-fluoromethylketone
[7]
  TUNEL-positive photoreceptor cells in the region of retinal detachment: fewer photoreceptor cells in the region of retinal detachment that stain TUNEL-positive
[2]
  inhibition of caspase 1: inhibits
[3]
  inhibition of caspase 4: inhibits
[4]
  inhibition of caspase 3: inhibits
[5]
  inhibition of caspase 7: inhibits
